“Also recorded” adds a separate entry of the source.
Key:
Assay type in all cases: cell-based
homomeric α2 GABAARs = target: T1, homomeric α2 GABAARs (Homo sapiens, UniProt P47869); test: Two-electrode voltage clamp of oocytes injected with α2 mRNA alone
T1 construct: expressed in transfected cells; host or cells: Xenopus laevis oocytes injected with α2 mRNA alone (28–35 ng/oocyte)
T1 sequence (P47869 29-451): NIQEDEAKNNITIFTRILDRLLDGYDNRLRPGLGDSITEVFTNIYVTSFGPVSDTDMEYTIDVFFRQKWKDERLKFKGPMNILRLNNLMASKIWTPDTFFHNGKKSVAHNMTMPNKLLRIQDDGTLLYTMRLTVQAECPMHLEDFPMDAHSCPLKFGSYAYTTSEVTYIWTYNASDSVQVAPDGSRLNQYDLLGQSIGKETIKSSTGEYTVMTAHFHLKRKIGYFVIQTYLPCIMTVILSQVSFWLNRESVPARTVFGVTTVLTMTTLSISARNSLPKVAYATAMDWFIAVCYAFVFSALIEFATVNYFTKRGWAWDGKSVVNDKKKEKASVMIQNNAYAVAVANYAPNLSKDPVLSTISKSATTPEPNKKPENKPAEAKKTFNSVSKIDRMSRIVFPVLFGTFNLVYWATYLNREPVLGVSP
Excerpt: (§1) Human complementary DNA (cDNA) of GABAAR α2 subunit (vector: pCMV6-XL5) was purchased from OriGene Technologies (Rockville, MD, USA), and the human β3 (vector: pGEMHE) and γ2L (vector: pCDM8) subunits were generous gifts from Dr. Bjarke Ebert (H. Lundbeck A/S, Valby, Denmark) and Dr. Paul Whiting (Merck, Sharp and Dohme Research Laboratories, Harlow, Essex, UK) respectively. […] Plasmid vectors with the cDNA incorporated were linearised using appropriate restriction endonucleases (α2: SmaI; β3: NheI; γ2L: NotI). Capped RNA transcripts were synthesised from linearised plasmids using the mMessage mMachine T7 transcript kit from Ambion (Austin, TX, USA). Purified messenger RNA (mRNA) was dissolved in nuclease-free water (Ambion, Austin, TX, USA), and its quality was assessed using 1% agarose gel electrophoresis. The concentration of each subunit mRNA was measured using Nanodrop ND-100 UV-Vis spectrophotometer (Thermo Fisher Scientific, North Ryde, NSW, Australia).
Various combinations of α2, β3 and γ2L subunit mRNAs were mixed to different ratios as stated in the text, and diluted accordingly to a concentration of 5 ng/μL (unless otherwise stated). […] Injected oocytes were stored in ND96 storage solution supplemented with 50 μg/mL gentamycin and tetracycline at 18°C. […]

α2γ2L receptors = target: T2, α2γ2L receptors (Homo sapiens, UniProt P18507+P47869); test: Two-electrode voltage clamp of binary α2γ2L receptors expressed in Xenopus oocytes
T2 construct: expressed in transfected cells; host or cells: Xenopus laevis oocytes injected with α2 and γ2L mRNAs
T2 sequence (P18507 40-475, one chain of several): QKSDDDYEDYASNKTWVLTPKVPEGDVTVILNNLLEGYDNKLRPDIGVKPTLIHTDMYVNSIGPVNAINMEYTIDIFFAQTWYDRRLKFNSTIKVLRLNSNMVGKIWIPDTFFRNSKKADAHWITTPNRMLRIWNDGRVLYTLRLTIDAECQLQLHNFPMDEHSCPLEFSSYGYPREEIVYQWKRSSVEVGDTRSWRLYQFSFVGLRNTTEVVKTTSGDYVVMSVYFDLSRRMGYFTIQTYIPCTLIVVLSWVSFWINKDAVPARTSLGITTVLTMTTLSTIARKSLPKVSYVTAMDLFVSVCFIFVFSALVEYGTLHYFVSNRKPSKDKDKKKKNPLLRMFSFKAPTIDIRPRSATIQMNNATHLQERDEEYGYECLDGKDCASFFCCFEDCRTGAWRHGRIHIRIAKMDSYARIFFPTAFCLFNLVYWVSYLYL
Excerpt: as §1
(§2) Various combinations of α2, β3 and γ2L subunit mRNAs were mixed to different ratios as stated in the text, and diluted accordingly to a concentration of 5 ng/μL (unless otherwise stated). […] Injected oocytes were stored in ND96 storage solution supplemented with 50 μg/mL gentamycin and tetracycline at 18°C. Two-electrode voltage clamp recordings were performed on oocytes 2–4 days post-injection at room temperature (20–25°C) using a GeneClamp 500B amplifier (ADInstruments, Sydney, NSW, Australia) or a Warner OC-725C Oocyte Clamp (Warner Instrument Corp, Hamden, CT, USA). All experiments were conducted at a holding potential of –60 mV, and data were acquired with a PowerLab 2/25, and LabChart (version 5.0.2) software (ADInstruments, Sydney, NSW, Australia). The recording microelectrodes (0.2–1.1 MΩ) were generated from capillary glass (Harvard Apparatus, Holliston, MA, USA) using a single-stage glass microelectrode puller (Narishige, Tokyo, Japan), and were filled with 3 M KCl solution. The perfusion system was built using a series of polycarbonate, high-density polyethylene two-way stopcocks (Qosina, Edgewood, NY, USA), connected through tubing to the recording chamber (100 μL), where the oocyte was continuously perfused with ND96 recording solution (96 mM NaCl, 2 mM KCl, 1 mM MgCl2, 1.8 mM CaCl2, 5 mM HEPES hemisodium; pH 7.4) at an approximate rate of 5 mL/min.
(§3) Perfusates containing these chemicals were made up fresh before each application. The concentration-response curves of agonists were obtained by exposing oocytes to increasing concentrations of agonists until the currents peaked. […] All experiments were performed using at least two different batches of oocytes.

α2β3γ2L GABAARs = target: T3, α2β3γ2L GABAARs (Homo sapiens, UniProt P18507+P28472+P47869); test: Two-electrode voltage clamp of recombinant α2β3γ2L GABAARs expressed in Xenopus oocytes
T3 construct: expressed in transfected cells; host or cells: Xenopus laevis oocytes injected with capped mRNA, α2:β3:γ2L 3:1:3
T3 sequence (P18507 40-475, one chain of several): as above
Excerpt: as §1, §2, §3
(§4) Prism (version 5.04; GraphPad Software, La Jolla, CA, USA) was used for data analysis.
(§5) In all cases, we constrained the bottom to 0, and when fitting data to the biphasic model, the Hill slopes were constrained to 1. Statistical comparisons of results for different injection ratios of β3γ2L receptors were performed using ANOVA with Tukey’s post-hoc test. When comparing results from different injection ratios of β3γ2L receptors with α2β3γ2L receptors, the ANOVA Dunnett’s test was used. Pairwise comparisons were performed using Student’s t test. Statistical significance was attained at p < 0.05.

α2β3 GABAARs = target: T4, α2β3 GABAARs (Homo sapiens, UniProt P28472+P47869); test: Two-electrode voltage clamp of binary α2β3 GABAARs expressed in Xenopus oocytes
T4 construct: expressed in transfected cells; host or cells: Xenopus laevis oocytes injected with capped mRNA, α2:β3 20:1
T4 sequence (P47869 29-451): T1 sequence (P47869 29-451)
T4 sequence (P28472 26-473): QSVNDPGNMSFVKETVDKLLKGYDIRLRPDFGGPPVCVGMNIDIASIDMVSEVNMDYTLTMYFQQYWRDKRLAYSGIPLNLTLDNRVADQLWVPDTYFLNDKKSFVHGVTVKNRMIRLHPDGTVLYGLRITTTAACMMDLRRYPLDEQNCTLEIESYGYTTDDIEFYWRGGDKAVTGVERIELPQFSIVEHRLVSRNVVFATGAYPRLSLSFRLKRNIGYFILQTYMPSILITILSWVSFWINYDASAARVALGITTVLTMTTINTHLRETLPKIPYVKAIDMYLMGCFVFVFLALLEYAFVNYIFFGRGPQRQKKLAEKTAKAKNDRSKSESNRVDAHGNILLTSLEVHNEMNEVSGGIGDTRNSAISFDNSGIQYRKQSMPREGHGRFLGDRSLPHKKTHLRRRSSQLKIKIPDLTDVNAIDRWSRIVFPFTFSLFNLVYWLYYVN
Excerpt: as §1, §2, §3, §4, §5

γ2L homomeric receptors = target: T5, γ2L homomeric receptors (Homo sapiens, UniProt P18507); test: Two-electrode voltage clamp of γ2L homomeric receptors expressed in Xenopus oocytes; settings: γ2L alone
T5 construct: expressed in transfected cells; host or cells: Xenopus laevis oocytes injected with γ2L mRNA alone (high amounts)
T5 sequence (P18507 40-475): as the sequence (P18507 40-475, one chain of several) above
Excerpt: as §1, §2, §3

β3 homomeric receptors = target: T6, β3 homomeric receptors (Homo sapiens, UniProt P28472); test: Two-electrode voltage clamp of β3 homomeric receptors expressed in Xenopus oocytes
T6 construct: expressed in transfected cells; host or cells: Xenopus laevis oocytes injected with β3 mRNA (5 ng/oocyte)
T6 sequence (P28472 26-473): T4 sequence (P28472 26-473)
Excerpt: as §1, §2, §3
Prism (version 5.04; GraphPad Software, La Jolla, CA, USA) was used for data analysis. […]

Structure (SMILES)	Expression level (current response elicited by GABA) (homomeric α2 GABAARs; 28–35 ng mRNA/oocyte, 60 mM GABA, -60 mV)	Expression level (current response elicited by GABA) (α2γ2L receptors; α2γ2L 1:1, 5 ng mRNA, 60 mM GABA, -60 mV)	Expression level (current response elicited by GABA) (α2β3γ2L GABAARs; α2β3γ2L 3:1:3, 3 mM GABA)	Expression level (current response elicited by GABA) (α2β3 GABAARs; α2β3 20:1, 5 ng mRNA, 3 mM GABA, -60 mV)	Expression level (current response elicited by GABA) (γ2L homomeric receptors; 20–35 ng mRNA/oocyte, 60 mM GABA, -60 mV)	Expression level (current response elicited by GABA) (β3 homomeric receptors; β3 alone, 5 ng mRNA/oocyte, 60 mM GABA, -60 mV)	2’MeO6MF activity (homomeric α2 GABAARs; 100 μM)	2’MeO6MF activity (α2γ2L receptors; α2γ2L 1:1, 100 μM)	EC50 (α2β3γ2L GABAARs)	2’MeO6MF activity (α2β3γ2L GABAARs; α2β3γ2L 3:1:3)	Direct activation, % of the 3 mM GABA response (α2β3γ2L GABAARs; α2β3γ2L 3:1:3, 300 μM ligand, mean ± SEM)	Enhancement of GABA current (co-application) (α2β3γ2L GABAARs; α2β3γ2L 3:1:3, GABA EC3–10 + 100 or 300 μM ligand, data not shown)	2’MeO6MF activity (α2β3 GABAARs; α2β3 20:1, 100 μM)	Elicited current, % of the 3 mM GABA responses (α2β3 GABAARs; α2β3 20:1, 100 μM ligand)	Enhancement of GABA current (co-application) (α2β3 GABAARs; α2β3 20:1, GABA EC3–10 + 100 or 300 μM ligand, data not shown)	2’MeO6MF activity (γ2L homomeric receptors; 100 μM)	2’MeO6MF activity (β3 homomeric receptors; β3 alone, 3–300 μM)	Maximal inhibition of constitutive activity (normalised against oocyte holding current) (β3 homomeric receptors; β3 homomers, 300 μM ligand)
NCCCC(=O)O [GABA, γ-aminobutyric acid]	did not detect function; also recorded: No current	no function; also recorded: No current	4300 ± 940 nA	1100 ± 220 nA	not sensitive; also recorded: not responsive; also recorded: No current	290 ± 67 nA												
COc1ccccc1-c1cc(=O)c2cc(C)ccc2o1 [2’MeO6MF, 2’-methoxy-6-methylflavone]							did not detect function; also recorded: No current	no function; also recorded: No current	~74 µM	Activation	8.2 ± 3.6%	No enhancement	lack of activity; also recorded: Insignificant activation	1.7 ± 0.35%	No enhancement	not sensitive; also recorded: not responsive; also recorded: No current	Inverse agonism	54 ± 3.0%
